In ChEMBL document CHEMBL4376842, “Synthesis and Biological Evaluation of Subglutinol Analogs for Immunomodulatory Agents” (J Med Chem, 2020):
Activity calls are given as the source filed them. The rule behind the calls is not given here.

How the values were obtained:
[1] = species: Mus musculus; experiment: (§1) Immunosuppressive activity in OT2 mouse CD4-positive T cells derived OVA(323 to 339)-activated Th-differentiating media cultured Th1 cells assessed as reduction in pDBU/ionomycin-stimulated IFNgamma production treated last 2 days of 5 days differentiation followed by pDBU/ionomycin stimulation on day 5 measured after 4 hrs by anti-mouse IFNgamma-Pacific Blue/IL-2-APC staining based flow cytometry; type: functional
[2] = as §1, with “production at late stage by measuring INFgamma level at 10 uM” for “production”, “cytometry (reference value: 4.34%)” for “cytometry”; type: functional; design: scale not given: the % may be the effect or the level left
[3] = as §1, with “production at late stage by measuring INFgamma level at 100 nM” for “production”, “cytometry (reference value: 4.34%)” for “cytometry”; type: functional; design: scale not given: the % may be the effect or the level left
[4] = as §1, with “Th17” for “Th1”, “1L17A” for “IFNgamma”, “production by measuring IL17A level at 10 uM” for “production”, “IL17A-APC” for “IFNgamma-Pacific Blue/IL-2-APC”, “cytometry (reference value: 1.44%)” for “cytometry”; type: functional; design: scale not given: the % may be the effect or the level left
[5] = as §1, with “Th17” for “Th1”, “1L17A” for “IFNgamma”, “production by measuring IL17A level at 100 nM” for “production”, “IL17A-APC” for “IFNgamma-Pacific Blue/IL-2-APC”, “cytometry (reference value: 1.44%)” for “cytometry”; type: functional; design: scale not given: the % may be the effect or the level left
[6] = as §1, with “production at early stage by measuring INFgamma level at 10 uM” for “production”, “cytometry (reference value: 57.3%)” for “cytometry”; type: functional; design: scale not given: the % may be the effect or the level left
[7] = as §1, with “production at early stage by measuring INFgamma level at 100 nM” for “production”, “cytometry (reference value: 57.3%)” for “cytometry”; type: functional; design: scale not given: the % may be the effect or the level left
[8] = Cytotoxicity against OT2 mouse CD4-positive T cells assessed as cell viability at 10 uM measured after 48 hrs by live/dead viability staining based flow cytometry (reference value: 57.2%); settings: read-out: Activity
[9] = Cytotoxicity against OT2 mouse CD4-positive T cells assessed as cell viability at 100 nM measured after 48 hrs by live/dead viability staining based flow cytometry (reference value: 57.2%); settings: read-out: Activity
[10] = Cytotoxicity against OT1 mouse CD8-positive T cells assessed as cell viability at 10 uM measured after 48 hrs by live/dead viability staining based flow cytometry (reference value: 39.5%); settings: read-out: Activity
[11] = Cytotoxicity against OT1 mouse CD8-positive T cells assessed as cell viability at 100 nM measured after 48 hrs by live/dead viability staining based flow cytometry (reference value: 39.5%); settings: read-out: Activity
[12] = species: Mus musculus; experiment: as §1, with “production up to 10 uM” for “production”; type: functional
[13] = species: Mus musculus; experiment: as §1, with “Th17” for “Th1”, “[…]” for “IFNgamma”, “production up to 10 uM” for “production”, “IL17A-APC” for “IFNgamma-Pacific Blue/IL-2-APC”; type: functional
[14] = Toxicity in MOG/CFA/Ptx-induced C57B/6 mouse model of experimental autoimmune encephalitis assessed as adverse changes at 4 umol, ip administered on day 4, 6, and 8 starting from 2 days post-disease induction and measured up to 50 days; type: organism-based; settings: in vivo
[15] = tested on: Mus musculus; experiment: Immunosuppressive activity in MOG/CFA/Ptx-induced C57B/6 mouse model of experimental autoimmune encephalitis assessed as decrease in clinical symptoms at 4 umol, ip administered on day 4, 6, and 8 starting from 2 days post-disease induction and measured daily up to 50 days; type: functional, organism-based
[16] = tested on: Mus musculus; experiment: Immunosuppressive activity in MOG/CFA/Ptx-induced C57B/6 mouse model of experimental autoimmune encephalitis assessed as time of disease onset at 4 umol, ip administered on day 4, 6, and 8 starting from 2 days post-disease induction and measured daily up to 50 days; type: functional
[17] = tested on: Mus musculus; experiment: (§2) Immunosuppressive activity in MOG/CFA/Ptx-induced C57B/6 mouse model of experimental autoimmune encephalitis assessed as change in T cell composition at 4 umol, ip administered on day 4 and 6 starting from 2 days post-disease induction and measured on day 7 post-last disease induction by immunostaining-based flow cytometry; type: functional, organism-based
[18] = tested on: Mus musculus; experiment: as §2, with “dendritic” for “T”; type: functional, organism-based
[19] = tested on: Mus musculus; experiment: as §2, with “change in regulatory T cell” for “change in T cell”; type: functional, organism-based
[20] = tested on: Mus musculus; experiment: as §2, with “macrophage” for “T cell”; type: functional, organism-based
[21] = tested on: Mus musculus; experiment: as §2, with “neutrophil” for “T cell”; type: functional, organism-based
[22] = tested on: Mus musculus; experiment: as §2, with “granulocytic myeloid-derived suppressor” for “T”; type: functional, organism-based
[23] = tested on: Mus musculus; experiment: as §2, with “live cells” for “change in T cell composition”, “live/dead staining-based” for “immunostaining-based”, “cytometry (reference value: 87.5%)” for “cytometry”; type: functional
[24] = tested on: Mus musculus; experiment: as §2, with “CD11b+ F4/80+ cells” for “change in T cell composition”, “cytometry (reference value: 15%)” for “cytometry”; type: functional
[25] = tested on: Mus musculus; experiment: as §2, with “macrophage cells” for “change in T cell composition”, “cytometry (reference value: 10.5%)” for “cytometry”; type: functional
[26] = tested on: Mus musculus; experiment: as §2, with “granulocytic myeloid-derived suppressor cells” for “change in T cell composition”, “cytometry (reference value: 28.1%)” for “cytometry”; type: functional
[27] = tested on: Mus musculus; experiment: as §2, with “inflammatory neutrophil cells” for “change in T cell composition”, “cytometry (reference value: 35.2%)” for “cytometry”; type: functional

C=C1CC[C@H]2[C@]3(C)C[C@@H](C=C(C)C)O[C@H]3CC[C@]2(C)[C@@H]1Cc1c(O)c(C)c(C)oc1=O [SUBGLUTINOL A]
Activity [1]: Dose-dependent effect
Activity [2]: 0%
Activity [3]: 0%
Activity [4]: 0.064%
Activity [5]: 0.017%
Activity [6]: 1.54%
Activity [7]: 0.84%
viability at 48 h, 10 µM [8]: 24.4%
viability at 48 h, 0.1 µM [9]: 46%
viability at 48 h, 10 µM [10]: 7.19%
viability at 48 h, 0.1 µM [11]: 14.5%

CC[C@@H]1C[C@@]2(C)[C@@H]3CCC[C@@H](Cc4c(O)c(C)c(C)oc4=O)[C@@]3(C)CC[C@@H]2O1
Activity [12]: Active
Activity [13]: Active

CC[C@@H]1C[C@@]2(C)[C@@H]3CCC[C@H](Cc4c(O)c(C)c(C)oc4=O)[C@@]3(C)CC[C@@H]2O1
Activity [12]: Active
Activity [13]: Active

Cc1oc(=O)c(C[C@@H]2CCC[C@H]3CCCC[C@@]32C)c(O)c1C
Activity [2]: 0%
Activity [3]: 1.03%
Activity [4]: 2.01%
Activity [5]: 1.33%
Activity [6]: 0.47%
Activity [7]: 18.7%
viability at 48 h, 10 µM [8]: 41.5%
viability at 48 h, 0.1 µM [9]: 60.6%
viability at 48 h, 10 µM [10]: 8.85%
viability at 48 h, 0.1 µM [11]: 42.6%
Activity [14]: Non-Toxic
Activity [15]: inactive
Time [16]: 15 days
Activity [17]: inactive
Activity [18]: inactive
Activity [19]: inactive
Activity [20]: inactive
Activity [21]: inactive
Activity [22]: inactive
Activity [23]: 88.8%
Activity [24]: 11%
Activity [25]: 4%
Activity [26]: 2.41%
Activity [27]: 74.7%

CC(C)=CC1Cc2c(ccc3c(Cc4c(O)c(C)c(C)oc4=O)cccc23)O1 (stereo not given)
Activity [12]: Active
Activity [13]: Active

C=C1CC[C@H]2[C@]3(C)C[C@@H](C=C(C)C)O[C@H]3CC[C@]2(C)[C@@H]1Cc1ccccc1
Activity [12]: Active
Activity [13]: Active

Cc1oc(=O)c(C[C@H]2CCC[C@H]3CCCC[C@@]32C)c(O)c1C
Activity [12]: Active
Activity [13]: Active
